Experimental data as given in paper PMC12363342, “Investigating the N-terminal linker histone H1 subtypes as substrates for JmjC lysine demethylases” (RSC Chemical Biology, 2025).
One block for each substance: values may come before it. Square brackets hold non-standard residues; d marks the D form. Ends that are not written are not given here. Lys(Me3) = C[N+](C)(C)CCCC[C@H](N)C(=O)O; Lys(Me2) = CN(C)CCCC[C@H](N)C(=O)O

Columns and labels:
KDM6B = assay: LC-MS demethylation activity assay, KDM6B; format: biochemical, human; details: 2 μM KDM, 10 μM H1/H3 peptide, 10 μM FAS, 100 μM LAA, 20 μM 2OG, 50 mM HEPES pH 7.5, 2 h, room temperature
Protocol: (§1) The substrate specificity of JmjC KDMs for H1 was examined using liquid chromatography coupled to mass spectrometry (LC-MS) assays. The H1 peptides (10 μM) were incubated with the recombinant KDM (2 μM) in HEPES buffer at pH 7.5 at room temperature for 2 h, in the presence of ferrous(II) ammonium sulfate (FAS, 10 μM), sodium ascorbate (LAA, 100 μM) and 2OG (20 μM), and then quenched with formic acid. N^ε-Methylated H3K9 and H3K36 peptides were used as positive controls (Fig. 3–5 and Fig. S2–S6).[26]
(§2) The catalytic domains of the JmjC KDMs used were recombinantly produced as reported in either Escherichia coli (KDM4AM1-L359,[38] KDM4DM1-L359,[39] KDM4EM1-R336,[30] KDM6BD1141–E1590[40] and KDM3CL2157-L2500) or Sf9 cells (KDM3AT515–S1317, KDM3B882–1761, and KDM5DM1-D775) as N-terminally His6-tagged proteins. […] To produce proteins, DNA sequences encoding for KDM3A, KDM3B and KDM5D were inserted into the pFB-LIC vector, containing a TEV-protease cleavable N-terminal 6x-histidine tag via ligation independent cloning (LIC). The resultant plasmids were transformed into baculovirus and Sf9 cells ([…]) which were infected with the virus stock. The cells were grown at 27 °C and 90 rpm for 70 h. Cells were then harvested and suspended in 100 mL of lysis buffer (50 mM HEPES-NaOH, pH 7.4, 500 mM NaCl, 20 mM imidazole, 0.5 mM Tris (2-carboxyethyl)phosphine (TCEP), 5% (v/v) glycerol). […] The supernatant was loaded onto a Ni-NTA gravity column, washed with 10 column volume of lysis buffer and eluted using the elution buffer (50 mM HEPES-NaOH, pH 7.4, 500 mM NaCl, 300 mM imidazole, 0.5 mM TCEP, 5% (v/v) glycerol). The eluted protein was further purified using S200 gel filtration column chromatography (50 mM HEPES-NaOH, pH 7.4, 150 mM NaCl, 0.5 mM TCEP and 5% glycerol). Protein purity was analysed by SDS-PAGE and further confirmed by mass spectrometry. Selected fractions were pooled, concentrated and stored at −80 °C.
(§3) All reagents were purchased from Sigma Aldrich and were of the highest grade available. Ferrous(II) ammonium sulfate (FAS) solutions were prepared freshly by dissolving FAS to 400 mM in 20 mM HCl with subsequent dilution to 1 mM using deionized water. Fresh 2OG (10 mM) and LAA (50 mM) solutions were prepared by dissolving the solids in deionised water. All enzyme reactions were performed in 384-well plates (Greiner Bio-One) with a final reaction volume of 50 μL. Substrate mixtures contained 50 mM HEPES pH 7.5, LAA (100 μM), FAS (10 μM), 2OG (20 μM) and an H1 isoform peptide (10 μM). Reactions were initiated by the addition of enzyme to a final concentration of 2.0 μM. After 2 h, the reactions were stopped by the addition of 5 μL of 10% (v/v) LC-MS grade formic acid (Fisher Scientific) to a final concentration of 1% (v/v). Product analyses were performed by liquid chromatography-mass spectrometry (LC-MS) using an Agilent 1290 infinity II LC system equipped with an Agilent 1290 multisampler and an Agilent 1290 high speed pump and connected to an Agilent 6550 accurate mass iFunnel quadrupole time of flight (Q-TOF) mass spectrometer. 1 μL of the reaction mixture was injected onto a 1.8 μm × 2.1 × 50 mm ZORBAX RRHD Eclipse Plus C18 column (Agilent). Solvent A consisted of HPLC grade water containing 0.1% (v/v) formic acid and solvent B consisted of MeCN containing 0.1% (v/v) formic acid. Peptides were separated using a stepwise gradient (0 min – 95% solvent A, 1.0 min – 80% solvent A, 3.0 min – 45% solvent A, 4.0 min – 45% solvent A, 5.0 min – 0% solvent A, 6.0 min – 0% solvent A, 7.0 min – 95% solvent A). This was followed by a 3 min post-run with 95% solvent A to re-equilibrate the column. All flow rates were 0.2 mL min^−1. A blank injection of HPLC grade water was carried out between each sample injection.

KDM4E = molecular target: T1, KDM4E (Homo sapiens, UniProt B2RXH2); assay: LC-MS demethylation activity assay, KDM4E; format: biochemical; details: 10 μM FAS, 100 μM LAA, 20 μM 2OG, room temperature; for substrate conversion (demethylation) by KDM4E: 2 μM KDM4E, 10 μM peptide, HEPES pH 7.5, 2 h
T1 construct: KDM4DM1-L359,[39]; KDM4EM1-R336,[30]; His6 (N); made in house; host or cells: Escherichia coli
T1 sequence (B2RXH2 1-336): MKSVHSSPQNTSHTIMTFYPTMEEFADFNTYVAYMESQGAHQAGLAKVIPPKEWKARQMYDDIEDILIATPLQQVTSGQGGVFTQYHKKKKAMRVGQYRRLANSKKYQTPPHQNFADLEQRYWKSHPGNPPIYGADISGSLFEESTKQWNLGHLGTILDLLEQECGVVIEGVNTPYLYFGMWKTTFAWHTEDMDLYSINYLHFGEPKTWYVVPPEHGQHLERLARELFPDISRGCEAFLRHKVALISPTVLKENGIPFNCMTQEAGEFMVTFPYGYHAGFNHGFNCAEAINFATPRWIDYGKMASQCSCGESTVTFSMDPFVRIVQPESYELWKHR
Protocol: as §1, §2, §3

KDM4A = assay: LC-MS demethylation activity assay, KDM4A; format: biochemical, human; details: 10 μM FAS, 100 μM LAA, 20 μM 2OG, room temperature; for substrate conversion (demethylation) by KDM4A: 2 μM KDM4A, 10 μM peptide, HEPES pH 7.5, 2 h
Protocol: as §1, §2, §3

KDM3C = assay: LC-MS demethylation activity assay, KDM3C; format: biochemical, human; details: 2 μM KDM, 10 μM H1/H3 peptide, 10 μM FAS, 100 μM LAA, 20 μM 2OG, 50 mM HEPES pH 7.5, 2 h, room temperature
Protocol: as §1, §2, §3

KDM5D = assay: LC-MS demethylation activity assay, KDM5D; format: biochemical, human; details: 2 μM KDM, 10 μM H1/H3 peptide, 10 μM FAS, 100 μM LAA, 20 μM 2OG, 50 mM HEPES pH 7.5, 2 h, room temperature
Protocol: as §1, §2, §3

KDM4D = molecular target: T2, KDM4D (Homo sapiens, UniProt Q6B0I6); assay: LC-MS demethylation activity assay, KDM4D; format: biochemical; details: room temperature
T2 construct: KDM4AM1-L359,[38]; KDM4DM1-L359,[39]; KDM4EM1-R336,[30]; His6 (N); made in house; host or cells: Escherichia coli
T2 sequence (Q6B0I6 1-359): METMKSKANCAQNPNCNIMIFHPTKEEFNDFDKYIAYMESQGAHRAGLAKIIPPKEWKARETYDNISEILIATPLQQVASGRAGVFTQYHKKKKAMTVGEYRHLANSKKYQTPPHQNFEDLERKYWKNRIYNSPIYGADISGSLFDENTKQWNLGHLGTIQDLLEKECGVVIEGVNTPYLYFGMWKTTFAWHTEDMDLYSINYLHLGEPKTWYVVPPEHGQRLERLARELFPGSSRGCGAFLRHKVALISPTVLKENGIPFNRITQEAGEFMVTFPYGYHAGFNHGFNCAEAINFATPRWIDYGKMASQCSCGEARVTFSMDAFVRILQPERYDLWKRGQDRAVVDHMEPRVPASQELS
Protocol: as §1, §2, §3

KDM3A = assay: LC-MS demethylation activity assay, KDM3A; format: biochemical, human; details: 2 μM KDM, 10 μM H1/H3 peptide, 10 μM FAS, 100 μM LAA, 20 μM 2OG, 50 mM HEPES pH 7.5, 2 h, room temperature
Protocol: as §1, §2, §3

KDM3B = assay: LC-MS demethylation activity assay, KDM3B; format: biochemical, human; details: 2 μM KDM, 10 μM H1/H3 peptide, 10 μM FAS, 100 μM LAA, 20 μM 2OG, 50 mM HEPES pH 7.5, 2 h, room temperature
Protocol: as §1, §2, §3

[1] = T (tri-) initial methylation state
[2] = 2 μM KDM, 10 μM H1/H3 peptide, 50 mM HEPES pH 7.5, 2 h, T (tri-) initial methylation state
[3] = 2 μM KDM4D, 10 μM peptide, standard conditions, 2 h
[4] = D (di-) initial methylation state
[5] = 2 μM KDM, 10 μM H1/H3 peptide, 50 mM HEPES pH 7.5, 2 h, D (di-) initial methylation state
[6] = M (mono-) initial methylation state
[7] = 2 μM KDM, 10 μM H1/H3 peptide, 50 mM HEPES pH 7.5, 2 h, M (mono-) initial methylation state

substrate conversion (demethylation) by KDM4E (KDM4E): < 10%
KDM4D demethylation activity, in words (KDM4D; [3]): No activity was observed
di-methylated product formed by KDM4D (KDM4D; [3]): < 5%
KDM4D demethylation activity, T (KDM4D; 2 μM KDM, 10 μM H1/H3 peptide, 10 μM FAS, 100 μM LAA, 20 μM 2OG, 50 mM HEPES pH 7.5, 2 h, T (tri-) initial methylation state): ● [red]
Substance: KKKAK[Lys(Me3)]AGATAGKRK [Peptide H1.3K25me3, 15-mer linker histone H1.3 residues 20-34 peptide, tri-methylated K25]
KDM6B demethylation activity, T (KDM6B; [1]): ● [red]
KDM4E demethylation activity, T (KDM4E; [2]): ● [black] (black dots indicate low-level demethylation (<10% conversion))
substrate conversion (demethylation) by KDM4A (KDM4A): < 10%
KDM4A demethylation activity, T (KDM4A; [2]): ● [black] (black dots indicate low-level demethylation (<10% conversion))
KDM3C demethylation activity, T (KDM3C; [1]): ● [red]
KDM5D demethylation activity, T (KDM5D; [1]): ● [red]
KDM3A demethylation activity, T (KDM3A; [1]): ● [red]
KDM3B demethylation activity, T (KDM3B; [1]): ● [red]

substrate conversion (demethylation) by KDM4E (KDM4E): ~50%
KDM4E demethylation activity, D (KDM4E; [5]): ● [red]
substrate conversion (demethylation) by KDM4D (KDM4D; 2 μM KDM4D, 10 μM peptide, 10 μM FAS, 100 μM LAA, 20 μM 2OG, HEPES pH 7.5, 2 h): > 40%
Substance: KKKAR[Lys(Me2)]SAGAAKRKA [Peptide H1.4K25me2, 15-mer linker histone H1.4 residues 20-34 peptide, di-methylated K25]
KDM6B demethylation activity, D (KDM6B; [4]): ● [red]
substrate conversion (demethylation) by KDM4A (KDM4A): ~20%
KDM4A demethylation activity, D (KDM4A; [5]): ● [black] (black dots indicate low-level demethylation (<10% conversion))
KDM3C demethylation activity, D (KDM3C; [4]): ● [red]
KDM5D demethylation activity, D (KDM5D; [4]): ● [red]
KDM4D demethylation activity, D (KDM4D; 2 μM KDM, 10 μM H1/H3 peptide, 10 μM FAS, 100 μM LAA, 20 μM 2OG, 50 mM HEPES pH 7.5, 2 h, D (di-) initial methylation state): ● [yellow] (yellow dots indicate moderate demethylation (<50% conversion))
KDM3A demethylation activity, D (KDM3A; [4]): ● [red]
KDM3B demethylation activity, D (KDM3B; [4]): ● [red]

KDM4E demethylation activity, M (KDM4E; [7]): ● [red]
KDM4D demethylation activity, M (KDM4D; 2 μM KDM, 10 μM H1/H3 peptide, 10 μM FAS, 100 μM LAA, 20 μM 2OG, 50 mM HEPES pH 7.5, 2 h, M (mono-) initial methylation state): ● [red]
Substance: KKKATKKmeAAGAGAAK [Peptide H1.5K26me, 15-mer linker histone H1.5 residues 20-34 peptide, mono-methylated K26]
KDM6B demethylation activity, M (KDM6B; [6]): ● [red]
KDM4A demethylation activity, M (KDM4A; [7]): ● [red]
KDM3C demethylation activity, M (KDM3C; [6]): ● [red]
KDM5D demethylation activity, M (KDM5D; [6]): ● [red]
KDM3A demethylation activity, M (KDM3A; [6]): ● [red]
KDM3B demethylation activity, M (KDM3B; [6]): ● [red]
